Reference: US8507463B2, “Nucleotide analogue prodrug and the preparation thereof” (Jiangsu Chia Tai Tianqing Pharmaceutical Co., Ltd., priority 2005, dated 2013)
Read-outs that look alike come from different tables or passages of the source.

Experiments:
[1] = tested on: Duck Hepatitis B Virus; assay: Anti-viral (anti-HBV) test in vivo, DHBV-DNA level by PCR; design: species or system GaoYou pockmark ducks; details: ducks, once a day, day 0 level as base line of 100
Procedure: Two-month old pockmark ducks vertically infected with Duck Hepatitis B Virus were selected as animal models to conduct anti-HBV test in vivo, the efficacy was investigated. 80 GaoYou pockmark ducks were divided randomly into. 8 groups, 10 ducks per groups, three groups were given TD fumarate at the dosage of 5, 15, 45 mg/kg once a day respectively, other three groups were given Tenofovir Disoproxil Fumarate at the dosage of 5, 15, 45 mg/kg once a day respectively, other one group was given Adefovir Dipivoxil at the dosage of 15 mg/kg once a day and the remaining group was blank control group. All the groups were administered for 28 days, and blood samples were taken every 7 days to determine the inhibitory effect to the DHBV-DNA level by PCR, inhibition rate was listed in the following table.

[2] = tested on: BEAGLE dogs; assay: Long term toxicity test (kidney function); format: in vivo; details: 6 months
Procedure: BEAGLE dogs as animal models, Adefovir Dipivoxil as control sample, long term toxicity of TD crystalline form A was investigated, especially the effects of TD crystalline form A on kidney function was investigated.
30 BEAGLE dogs were randomly divided into 5 groups, 6 dogs per group. One group as blank control group, three groups as low dosing, medium dosing and high dosing group of TD crystalline form A respectively. The dosage of low dosing group was 5 mg/kg once per day, the dosage of medium dosing group was 15 mg/kg once per day and the dosage of high dosing group was 45 mg/kg once per day. The remaining group was Adefovir Dipivoxil control group, dosed at 40 mg/kg once per day.
Drugs mixed with salad oil were administered to the animals for 6 months consecutively, then observed for 21 consecutive days after drug withdrawal.

[3] = human, cited from earlier work
[4] = High humidity test (room temperature, relative humidity 75±5%); format: physicochemical; details: 25° C.
Procedure: Samples were evenly spread out and placed in open culture dishes, wherein the thickness thereof was less than 5 mm, put in a thermostatic drying chamber at room temperature (25° C.) with relative humidity of 75±5%. Then the samples were taken on the fifth and tenth day respectively for determination, compared with the result of day 0, results were listed in the table below

[5] = Light exposure test (4500±500 Lx); format: physicochemical; details: light 4500±500 Lx
Source text: Samples were evenly spread out and placed in open culture dishes and the thickness thereof was less than 5 mm, then distances were adjusted until the illumination intensity was 4500±500 Lx, samples were taken on the fifth and tenth day respectively for determination, compared with the result of day 0, results were listed in the table below: […]

[6] = format: physicochemical; details: for amount of solvent (ml), 0.1N HCl / amount of solvent (ml), 0.1N NaOH / amount of solvent (ml), anhydrous ethanol / amount of solvent (ml), methanol / amount of solvent (ml), water: to dissolve 1 g of sample
[7] = High temperature test (60° C.); format: physicochemical; details: sealed ampoules
Procedure: Samples were sealed in clean glass ampoules and put in 60° C. thermostatic drying chamber, then they were taken on the fifth and tenth day respectively for determination, compared with the result of day 0, results were listed in the table below:
Samples were sealed in clean glass ampoules and put in 60° C. thermostatic drying chamber, then they were taken on the fifth and tenth day respectively for determination, compared with the result of day 0, results were listed in the table below

[8] = Stability analysis, overall conclusion in words; format: physicochemical; details: from light, high temperature, high humidity and acceleration tests
[9] = Acceleration test (40° C., relative humidity 75%); format: physicochemical
Procedure: Samples were sealed with polyethylene plastic bags, placed in the thermostatic drying chamber at 40±2° C. with relative humidity of 75±5% for 3 months. Then the samples were taken at the end of the first, second and third month respectively for determination, compared with the result of day 0, results were listed in the table below: […]

[10] = Acute toxicity test, median lethal dose (LD50); details: both sexes, mouse, in vivo, oral, mice, infused into the stomach, observed 14 days
Procedure: TD fumarate and TD crystalline form A were dissolved in 0.1M citric acid aqueous solution respectively, 140 healthy mice with 18˜22 g body-weight was selected, randomly divided into 14 groups, 10 per group, and the number of male and female mice were equal.
Following the preliminary test, TD fumarate and TD crystalline form A were administered to 7 different dosing groups by infusing into the stomach, observed for 14 days consecutively to investigate the toxic reaction and death cases of mice and then LD50 was calculated.

[11] = Bioavailability: blood concentration-time from plasma radioactivity; format: in vivo; details: mice, intragastric 30 mg/kg
Procedure: 10 mice were randomly divided into 2 groups, 5 per group, intragastricly administered 3H-TD fumarate and Tenofovir Disoproxil Fumarate at 30 mg/kg with radio dose of 135 μCi/kg respectively. Plasm samples in different times were taken to measure the radioactivity, which was then converted into the plasma concentration.
Comparison of the blood concentration (ug/ml)-time of 3H-TD fumarate and Tenofovir Disoproxil Fumarate.

[12] = BEAGLE dogs, 40 mg/kg once per day
[13] = read-out: LD50, 95% confident limit

With CC(C)(C)C(=O)OCOP(=O)(COCCn1cnc2c(N)ncnc21)OCOC(=O)C(C)(C)C [Adefovir Dipivoxil] as the compound, how does the “DHBV-DNA level, First week” value ([1]; 15 mg/ml group) read?
The value was 85 ± 7.

And the “DHBV-DNA level, Fourth week” value ([1]; 15 mg/ml group)?
The value was 33 ± 6.

And the “DHBV-DNA level, Second week” value ([1]; 15 mg/ml group)?
The value was 70 ± 6.

What about the “DHBV-DNA level, Third week” value ([1]; 15 mg/ml group) of the same compound?
The value was 55 ± 7.

What about the “levels of serum carnine and urea nitrogen, in words” value [2, 12] of the same compound?
The value was “significantly higher”.

What about the “urea nitrogen” value [2, 12] of the same compound?
The value was 24.7 ± 1.35 mmol/L.

And the “adverse reaction and renal dysfunction” value ([3]; 50 mg/day and 30 mg/day)?
The value was “higher incidence”.

And the “nephrotoxicity in clinical trials” value ([3]; recent clinical trials)?
The value was “observed”.

What does the source list for C[C@H](Cn1cnc2c(N)ncnc21)OCP(=O)(OCOC(=O)C(C)(C)C)OCOC(=O)C(C)(C)C [TD crystalline form A, 9-[2-(R)-[bis[pivaloyloxymethoxy]-phosphinylmethoxy]propyl]adenine]?
content (%) ([4]; day 0): 99.7%; Weight gain after moisture absorption (%) ([4]; day 5): 4.3%; content (%) ([4]; day 5): 98.5%; Weight gain after moisture absorption (%) ([4]; day 10): 5.6%; content (%) ([4]; day 10): 97.2%; content (%) ([5]; day 0): 98.7%; content (%) ([5]; day 5): 98.3%; content (%) ([5]; day 10): 98.5%; solubility conclusion, 0.1N HCl [6]: soluble; solubility conclusion, 0.1N NaOH [6]: slightly; solubility conclusion, anhydrous ethanol [6]: freely soluble; solubility conclusion, methanol [6]: freely soluble; amount of solvent (ml), 0.1N HCl [6]: 33.5 mL; amount of solvent (ml), 0.1N NaOH [6]: 910 mL; amount of solvent (ml), anhydrous ethanol [6]: 5.0 mL; amount of solvent (ml), methanol [6]: 1.4 mL; amount of solvent (ml), water ([6]; water): 880 mL; solubility conclusion, water ([6]; water): soluble; content (%) ([7]; day 0): 99.1%; content (%) ([7]; day 5): 98.6%; content (%) ([7]; day 10): 98.4%; stability, overall conclusion in words [8]: good stabilities; content (%) ([9]; end of month 1): 93.1%; content (%) ([9]; end of month 2): 90.5%; content (%) ([9]; end of month 3): 86.3%; content (%) ([9]; month 0): 99.7%; urea nitrogen ([2]; BEAGLE dogs, 5 mg/kg once per day): 17.1 ± 1.32 mmol/L; urea nitrogen ([2]; BEAGLE dogs, 15 mg/kg once per day): 14.2 ± 1.20 mmol/L; urea nitrogen ([2]; BEAGLE dogs, 45 mg/kg once per day): 15.7 ± 1.08 mmol/L; hematological, blood and urine biochemical parameters versus blank control group, in words ([2]; BEAGLE dogs, 5, 15 and 45 mg/kg once per day): no significant differences; LD50 at 14 days ([10]; read-out: LD50): 4310 mg/kg; LD50 at 14 days [10, 13]: 2830 to 5440 mg/kg

For C[C@H](Cn1cnc2c(N)ncnc21)OCP(=O)(OCOC(=O)C(C)(C)C)OCOC(=O)C(C)(C)C.O=C(O)/C=C/C(=O)O [TD fumarate], which “content (%)” value ([4]; day 0) is on record?
Its value is 99.2%.

And the “Weight gain after moisture absorption (%)” value ([4]; day 5)?
Its value is 0%.

What about the “content (%)” value ([4]; day 5) of the same compound?
Its value is 99.1%.

And the “Weight gain after moisture absorption (%)” value ([4]; day 10)?
Its value is 0%.

And the “content (%)” value ([4]; day 10)?
Its value is 99.1%.

What about the “content (%)” value ([5]; day 0) of the same compound?
Its value is 99.2%.

And the “content (%)” value ([5]; day 5)?
Its value is 99.2%.

What about the “content (%)” value ([5]; day 10) of the same compound?
The value was 99.1%.

And the “solubility conclusion, 0.1N HCl” value [6]?
The value was “soluble”.

And the “solubility conclusion, 0.1N NaOH” value [6]?
Its value is “soluble”.

And the “solubility conclusion, anhydrous ethanol” value [6]?
The value was “freely soluble”.

What about the “solubility conclusion, methanol” value [6] of the same compound?
Its value is “freely”.

And the “amount of solvent (ml), 0.1N HCl” value [6]?
The value was 18.5 mL.

And the “amount of solvent (ml), 0.1N NaOH” value [6]?
Its value is 65 mL.

What about the “amount of solvent (ml), anhydrous ethanol” value [6] of the same compound?
The value was 15.5 mL.

What about the “amount of solvent (ml), methanol” value [6] of the same compound?
The value was 7.4 mL.

What about the “amount of solvent (ml), water” value ([6]; water) of the same compound?
Its value is 120 mL.

And the “solubility conclusion, water” value ([6]; water)?
Its value is “soluble”.

What about the “water solubility compared with other solid TD forms, in words” value ([6]; water) of the same compound?
Its value is “better water solubility”.

What about the “content (%)” value ([7]; day 0) of the same compound?
Its value is 99.5%.

And the “content (%)” value ([7]; day 5)?
Its value is 99.5%.

What about the “content (%)” value ([7]; day 10) of the same compound?
The value was 99.4%.

What about the “stability, overall conclusion in words” value [8] of the same compound?
Its value is “good solubility and stabilities”.

What about the “DHBV-DNA level, First week” value ([1]; 5 mg/ml group) of the same compound?
Its value is 92 ± 7.

What about the “DHBV-DNA level, Fourth week” value ([1]; 5 mg/ml group) of the same compound?
The value was 40 ± 5.

What about the “DHBV-DNA level, Second week” value ([1]; 5 mg/ml group) of the same compound?
The value was 71 ± 5.

And the “DHBV-DNA level, Third week” value ([1]; 5 mg/ml group)?
Its value is 50 ± 9.

What about the “DHBV-DNA level, First week” value ([1]; 15 mg/ml group) of the same compound?
Its value is 78 ± 9.

And the “DHBV-DNA level, Fourth week” value ([1]; 15 mg/ml group)?
Its value is 25 ± 7.

And the “DHBV-DNA level, Second week” value ([1]; 15 mg/ml group)?
The value was 59 ± 8.

And the “DHBV-DNA level, Third week” value ([1]; 15 mg/ml group)?
The value was 39 ± 7.

What about the “DHBV-DNA level, First week” value ([1]; 45 mg/ml group) of the same compound?
The value was 65 ± 6.

And the “DHBV-DNA level, Fourth week” value ([1]; 45 mg/ml group)?
Its value is 16 ± 8.

And the “DHBV-DNA level, Second week” value ([1]; 45 mg/ml group)?
The value was 43 ± 5.

What about the “DHBV-DNA level, Third week” value ([1]; 45 mg/ml group) of the same compound?
The value was 25 ± 10.

What about the “content (%)” value ([9]; end of month 1) of the same compound?
The value was 99.0%.

And the “content (%)” value ([9]; end of month 2)?
The value was 98.7%.

What about the “content (%)” value ([9]; end of month 3) of the same compound?
The value was 98.5%.

And the “content (%)” value ([9]; month 0)?
The value was 99.3%.

What about the LD50 at 14 days ([10]; read-out: LD50) of the same compound?
Its LD50 at 14 days is 6050 mg/kg.

And the LD50 at 14 days [10, 13]?
Its LD50 at 14 days is 4500 to 7870 mg/kg.

What about the “blood concentration” value ([11]; 10 min) of the same compound?
Its value is 730 ng/mL.

What about the “blood concentration” value ([11]; 30 min) of the same compound?
The value was 1440 ng/mL.

And the “blood concentration” value ([11]; 45 min)?
Its value is 1770 ng/mL.

What about the “blood concentration” value ([11]; 60 min) of the same compound?
The value was 2520 ng/mL.

And the “blood concentration” value ([11]; 90 min)?
The value was 1340 ng/mL.

What about the “blood concentration” value ([11]; 120 min) of the same compound?
The value was 1030 ng/mL.

And the “blood concentration” value ([11]; 180 min)?
The value was 940 ng/mL.

And the “blood concentration” value ([11]; 240 min)?
The value was 730 ng/mL.

And the “blood concentration” value ([11]; 360 min)?
The value was 550 ng/mL.

What about the “blood concentration” value ([11]; 480 min) of the same compound?
Its value is 340 ng/mL.
